Reference: article PMC8648761, “Reductive inactivation of the hemiaminal pharmacophore for resistance against tetrahydroisoquinoline antibiotics” (Nature Communications, 2021)

What was measured:
[1] = target: T1, SfmC (Streptomyces lavendulae, UniProt B0CN27); test: MS of dual Pictet-Spengler product […]; type: biochemical; settings: 1 mM substrate, 0.5 mM myristoyl-Ala-glycinaldehyde, 1 mM ATP, MgCl2, MnCl2, NADH, HEPES pH 7.0, 30 C, 2 h
T1 construct: NRPS

[2] = target: T2, NapW (Streptomyces lusitanus, UniProt S4TKM8); test: X-ray crystal structure (co-crystallisation); type: binding; settings: co-crystallised with 5 mM NADPH; modelled as NADP+; Rossmann fold site
T2 construct: recombinant in E. coli BL21(DE3), His-tagged, Ni-NTA (pET-28a or pET-37b)

[3] = target: T3, SDR-Pb (Paenibacillus rhizosphaerae, UniProt A0A1R1EZ79); test: HPLC of reduction to […]; type: biochemical; settings: 290 uM ET-743, 1 mM NADPH, Tris-HCl pH 8.0, 30 C, 8 h
T3 construct: gene BK138_00365; recombinant in E. coli BL21(DE3), His-tagged

[4] = target: T4, homO1b (Streptomyces lavendulae, UniProt A0A896A5A8); test: HPLC and MS of reduction to […]; type: biochemical; settings: […] ET-[…] NADPH, Tris-HCl pH […] C, […] h
T4 sequence (A0A896A5A8 1-308): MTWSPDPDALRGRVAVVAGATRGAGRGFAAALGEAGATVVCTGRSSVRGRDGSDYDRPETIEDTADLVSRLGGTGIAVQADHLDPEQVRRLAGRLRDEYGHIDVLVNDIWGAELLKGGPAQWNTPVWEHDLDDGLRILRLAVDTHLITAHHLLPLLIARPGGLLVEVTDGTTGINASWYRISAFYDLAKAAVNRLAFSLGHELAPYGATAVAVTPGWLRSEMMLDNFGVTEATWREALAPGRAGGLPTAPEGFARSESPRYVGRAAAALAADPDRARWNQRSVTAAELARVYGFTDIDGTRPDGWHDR

[5] = target: SfmO1 (Streptomyces lavendulae, UniProt B0CN12); test: HPLC and MS of reduction to […]; type: biochemical; settings: 290 uM ET-743, 1 mM NADPH, Tris-HCl pH 8.0, 30 C, 8 h
[6] = system: T5, SDR-Rm (Rhizobium mesoamericanum); test: HPLC of reduction to […]; type: biochemical; settings: […] ET-[…] NADPH, Tris-HCl pH […] C, […] h
T5 construct: recombinant in E. coli BL21(DE3), His-tagged

[7] = target: T2, NapW; test: HPLC and MS of reduction to […]; type: biochemical; settings: 290 uM ET-743, 1 mM NADPH, Tris-HCl pH 8.0, 30 C, 8 h
[8] = target: T6, homW (Streptomyces lusitanus, UniProt A0A896A0X3); test: HPLC and MS of reduction to […]; type: biochemical; settings: […] ET-[…] NADPH, Tris-HCl pH […] C, […] h
T6 sequence (A0A896A0X3 1-304): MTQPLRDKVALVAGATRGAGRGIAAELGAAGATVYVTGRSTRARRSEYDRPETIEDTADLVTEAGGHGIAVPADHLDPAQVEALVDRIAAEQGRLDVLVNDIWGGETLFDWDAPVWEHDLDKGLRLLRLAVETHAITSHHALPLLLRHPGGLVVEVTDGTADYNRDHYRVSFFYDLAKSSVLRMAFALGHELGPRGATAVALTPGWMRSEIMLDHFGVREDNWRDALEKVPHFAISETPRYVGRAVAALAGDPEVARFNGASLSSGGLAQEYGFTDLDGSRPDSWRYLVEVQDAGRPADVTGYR

[9] = target: T7, SDR-Mb (Myxococcales bacterium, UniProt A0A1M3NHK2); test: HPLC of reduction to […]; type: biochemical; settings: […] ET-[…] NADPH, Tris-HCl pH […] C, […] h
T7 construct: recombinant in E. coli BL21(DE3), His-tagged
T7 sequence (A0A1M3NHK2 1-336): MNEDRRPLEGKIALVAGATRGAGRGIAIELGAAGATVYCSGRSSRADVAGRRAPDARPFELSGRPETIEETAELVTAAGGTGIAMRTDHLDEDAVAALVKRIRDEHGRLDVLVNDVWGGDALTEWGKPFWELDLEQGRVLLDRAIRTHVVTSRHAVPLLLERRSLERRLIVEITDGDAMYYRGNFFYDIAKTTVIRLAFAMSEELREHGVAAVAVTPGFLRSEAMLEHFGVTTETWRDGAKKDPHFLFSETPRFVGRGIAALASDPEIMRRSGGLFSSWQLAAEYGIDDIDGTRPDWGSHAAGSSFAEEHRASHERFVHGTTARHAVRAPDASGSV

[10] = target: T8, homO1a (Streptomyces lavendulae, UniProt A0A895ZRD1); test: HPLC and MS of reduction to […]; type: biochemical; settings: […] ET-[…] NADPH, Tris-HCl pH […] C, […] h
T8 sequence (A0A895ZRD1 1-325): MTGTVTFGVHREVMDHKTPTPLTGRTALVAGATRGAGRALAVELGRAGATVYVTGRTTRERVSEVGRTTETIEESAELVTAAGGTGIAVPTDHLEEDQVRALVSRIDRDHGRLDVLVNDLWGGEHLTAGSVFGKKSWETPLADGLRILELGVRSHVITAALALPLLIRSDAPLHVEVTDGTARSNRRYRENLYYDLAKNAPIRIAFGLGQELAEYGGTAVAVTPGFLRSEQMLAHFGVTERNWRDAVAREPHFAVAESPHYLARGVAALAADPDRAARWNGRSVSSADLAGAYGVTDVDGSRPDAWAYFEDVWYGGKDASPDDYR

[11] = target: T9, SDR-Cs (Chlorella sorokiniana, UniProt A0A2P6TRY4); test: HPLC of reduction to […]; type: biochemical; settings: 290 uM ET-743, 1 mM NADPH, Tris-HCl pH 8.0, 30 C, 8 h
T9 construct: gene C2E21_4667; recombinant in E. coli BL21(DE3), His-tagged
T9 sequence (A0A2P6TRY4 entry or part of it): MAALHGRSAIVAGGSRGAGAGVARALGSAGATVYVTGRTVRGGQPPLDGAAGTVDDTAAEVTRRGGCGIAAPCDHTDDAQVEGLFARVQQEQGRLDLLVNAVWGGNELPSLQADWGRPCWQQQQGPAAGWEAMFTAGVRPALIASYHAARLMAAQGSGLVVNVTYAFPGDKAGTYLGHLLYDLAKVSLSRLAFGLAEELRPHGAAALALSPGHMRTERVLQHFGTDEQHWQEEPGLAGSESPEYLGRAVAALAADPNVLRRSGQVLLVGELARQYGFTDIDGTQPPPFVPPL

T2 sequence (S4TKM8 entry or part of it): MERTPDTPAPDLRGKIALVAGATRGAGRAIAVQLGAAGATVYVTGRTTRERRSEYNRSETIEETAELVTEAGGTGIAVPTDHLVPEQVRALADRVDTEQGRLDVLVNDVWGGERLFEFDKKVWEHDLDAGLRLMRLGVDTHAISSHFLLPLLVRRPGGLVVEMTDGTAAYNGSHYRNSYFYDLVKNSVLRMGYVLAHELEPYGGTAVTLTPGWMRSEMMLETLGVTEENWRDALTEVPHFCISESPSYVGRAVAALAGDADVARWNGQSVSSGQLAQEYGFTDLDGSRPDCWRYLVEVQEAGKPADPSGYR
T3 sequence (A0A1R1EZ79 entry or part of it): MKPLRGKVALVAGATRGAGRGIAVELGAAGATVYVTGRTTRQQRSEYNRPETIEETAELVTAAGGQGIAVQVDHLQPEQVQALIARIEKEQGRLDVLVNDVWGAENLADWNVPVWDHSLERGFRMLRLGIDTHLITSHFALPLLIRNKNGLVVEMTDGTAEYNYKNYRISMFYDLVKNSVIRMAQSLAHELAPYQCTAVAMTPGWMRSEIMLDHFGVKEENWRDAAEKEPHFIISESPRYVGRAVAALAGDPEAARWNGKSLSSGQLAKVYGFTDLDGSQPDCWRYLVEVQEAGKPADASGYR
T5 sequence (Z9SGJ4VC86 1-304): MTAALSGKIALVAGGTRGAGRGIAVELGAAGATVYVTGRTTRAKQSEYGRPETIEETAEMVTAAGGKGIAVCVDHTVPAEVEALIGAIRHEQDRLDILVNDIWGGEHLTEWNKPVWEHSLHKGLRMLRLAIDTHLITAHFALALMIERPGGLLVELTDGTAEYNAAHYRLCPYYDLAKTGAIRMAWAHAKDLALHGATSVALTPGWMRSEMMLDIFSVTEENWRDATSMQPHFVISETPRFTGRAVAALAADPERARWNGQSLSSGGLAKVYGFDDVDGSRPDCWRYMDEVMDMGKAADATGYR
Chain of SfmO1 (B0CN12 entry or part of it): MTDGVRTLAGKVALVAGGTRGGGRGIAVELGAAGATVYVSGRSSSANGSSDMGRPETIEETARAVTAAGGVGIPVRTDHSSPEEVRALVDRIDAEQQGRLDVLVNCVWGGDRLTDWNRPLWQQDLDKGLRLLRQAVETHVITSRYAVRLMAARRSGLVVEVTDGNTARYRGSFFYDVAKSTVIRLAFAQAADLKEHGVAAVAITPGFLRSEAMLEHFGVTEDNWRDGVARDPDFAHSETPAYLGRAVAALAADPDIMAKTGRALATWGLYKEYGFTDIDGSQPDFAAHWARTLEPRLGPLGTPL
T1 sequence (B0CN27 entry or part of it): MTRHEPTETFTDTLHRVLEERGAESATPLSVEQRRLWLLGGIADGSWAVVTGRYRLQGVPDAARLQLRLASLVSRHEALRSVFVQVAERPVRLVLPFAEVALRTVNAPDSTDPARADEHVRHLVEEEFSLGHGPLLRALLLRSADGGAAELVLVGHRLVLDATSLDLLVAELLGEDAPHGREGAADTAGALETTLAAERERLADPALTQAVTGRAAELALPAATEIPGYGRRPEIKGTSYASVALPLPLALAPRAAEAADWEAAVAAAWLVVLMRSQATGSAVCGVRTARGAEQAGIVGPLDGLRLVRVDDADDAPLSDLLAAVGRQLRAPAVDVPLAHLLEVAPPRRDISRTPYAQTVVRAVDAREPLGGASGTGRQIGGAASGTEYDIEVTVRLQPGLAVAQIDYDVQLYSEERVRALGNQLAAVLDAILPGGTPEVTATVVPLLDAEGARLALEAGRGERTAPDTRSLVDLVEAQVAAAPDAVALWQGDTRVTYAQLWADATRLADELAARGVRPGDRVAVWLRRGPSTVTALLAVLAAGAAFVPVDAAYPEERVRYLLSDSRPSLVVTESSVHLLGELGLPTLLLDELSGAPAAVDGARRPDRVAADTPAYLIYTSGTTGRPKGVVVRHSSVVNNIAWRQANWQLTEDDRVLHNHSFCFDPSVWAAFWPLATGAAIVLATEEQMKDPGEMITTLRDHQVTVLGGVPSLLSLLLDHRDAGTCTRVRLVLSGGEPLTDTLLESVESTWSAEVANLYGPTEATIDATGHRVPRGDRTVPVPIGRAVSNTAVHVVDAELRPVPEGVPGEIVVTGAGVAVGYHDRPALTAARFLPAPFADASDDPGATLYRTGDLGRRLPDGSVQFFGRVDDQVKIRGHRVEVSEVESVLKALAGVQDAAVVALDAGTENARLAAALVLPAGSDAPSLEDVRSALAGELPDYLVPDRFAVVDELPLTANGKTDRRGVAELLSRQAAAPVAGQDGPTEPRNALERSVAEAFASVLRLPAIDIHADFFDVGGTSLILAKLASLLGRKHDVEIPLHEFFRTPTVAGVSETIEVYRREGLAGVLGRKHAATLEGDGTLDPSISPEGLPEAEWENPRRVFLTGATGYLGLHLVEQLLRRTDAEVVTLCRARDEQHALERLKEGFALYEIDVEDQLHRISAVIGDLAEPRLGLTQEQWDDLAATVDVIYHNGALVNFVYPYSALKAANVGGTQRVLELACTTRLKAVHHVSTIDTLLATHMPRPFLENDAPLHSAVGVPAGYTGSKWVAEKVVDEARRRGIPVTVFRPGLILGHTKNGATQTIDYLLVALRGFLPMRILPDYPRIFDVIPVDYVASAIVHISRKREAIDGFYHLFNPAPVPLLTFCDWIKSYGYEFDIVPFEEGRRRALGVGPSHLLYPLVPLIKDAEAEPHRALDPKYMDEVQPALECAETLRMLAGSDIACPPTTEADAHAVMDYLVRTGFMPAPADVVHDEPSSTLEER

COc1c(C)cc(C[C@H](N)C(=O)O)cc1O [3-OH-5-Me-O-Me-Tyr]
MS of dual Pictet-Spengler product 16 [1]: Dual Pictet-Spengler reactions catalyzed SfmC

NC(=O)c1ccc[n+]([C@@H]2O[C@H](COP(=O)(O)OP(=O)(O)OC[C@H]3O[C@@H](n4cnc5c(N)ncnc54)[C@H](OP(=O)(O)O)[C@@H]3O)[C@@H](O)[C@H]2O)c1 [NADP^+]
X-ray crystal structure (co-crystallisation) [2]: We further obtained the structure of NapW·NADP^+ binary complex by co-crystallizing NapW, NADP(H)

COc1cc2c(cc1O)CCN[C@]21CS[C@@H]2c3c(OC(C)=O)c(C)c4c(c3[C@H](COC1=O)N1[C@@H]2[C@H]2c3c(cc(C)c(OC)c3O)C[C@@H]([C@@H]1O)N2C)OCO4 [compound 7, ET-743]
HPLC of reduction to 8 [3]: most proteins can catalyze reductive reaction of THIQ compounds except that SDR-Li and SDR-Ss
HPLC and MS of reduction to 8 [4]: each of the five SDRs originated from NDM or SFM-A producer could effectively catalyze
HPLC and MS of reduction to 8 [5]: each of the five SDRs originated from NDM or SFM-A producer could effectively catalyze
HPLC of reduction to 8 [6]: most proteins can catalyze reductive reaction of THIQ compounds except that SDR-Li and SDR-Ss
HPLC and MS of reduction to 8 [7]: each of the five SDRs originated from NDM or SFM-A producer could effectively catalyze
HPLC and MS of reduction to 8 [8]: each of the five SDRs originated from NDM or SFM-A producer could effectively catalyze
HPLC of reduction to 8 [9]: most proteins can catalyze reductive reaction of THIQ compounds except that SDR-Li and SDR-Ss
HPLC and MS of reduction to 8 [10]: each of the five SDRs originated from NDM or SFM-A producer could effectively catalyze
HPLC of reduction to 8 [11]: most proteins can catalyze reductive reaction of THIQ compounds except that SDR-Li and SDR-Ss
